Measurements: PubChem BioAssay (NCI)
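96-well plates; 48 h exposure; 5 concentrations. Endpoints by linear interpolation between flanking doses. Not reached: highest tested concentration assigned. Here, GI50 denotes the concentration required for 50% inhibition of growth. TGI: concentration producing complete growth inhibition.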

Legend:
Experiment in all cases: NCI-60 cell line screen, 48 h
UACC-257 melanoma = tested on: UACC-257 melanoma
SK-MEL-5 melanoma = tested on: SK-MEL-5 melanoma
IGROV1 ovarian = tested on: IGROV1 ovarian
OVCAR-5 ovarian = tested on: OVCAR-5 ovarian
OVCAR-3 ovarian = tested on: OVCAR-3 ovarian
NCI-H522 lung = tested on: NCI-H522 lung
M14 melanoma = tested on: M14 melanoma
TK-10 renal = tested on: TK-10 renal
SK-MEL-28 melanoma = tested on: SK-MEL-28 melanoma
MDA-MB-231 breast = tested on: MDA-MB-231 breast

## COc1cccc2c1C(=O)OC2c1cccc2ccccc12 (centres undefined)
UACC-257 melanoma
  TGI: > 100 µM
SK-MEL-5 melanoma
  TGI: > 100 µM
IGROV1 ovarian
  TGI: > 100 µM
OVCAR-5 ovarian
  TGI: > 100 µM
OVCAR-3 ovarian
  TGI: > 100 µM
NCI-H522 lung
  TGI: > 100 µM
M14 melanoma
  TGI: > 100 µM
TK-10 renal
  TGI: > 100 µM
SK-MEL-28 melanoma
  TGI: > 100 µM
MDA-MB-231 breast
  TGI: > 100 µM

## N#Cc1c(N)nc(NCc2ccccc2)c(C#N)c1-c1ccc(Cl)cc1Cl
UACC-257 melanoma
  GI50: > 100 µM
  TGI: > 100 µM
SK-MEL-5 melanoma
  GI50: > 100 µM
  TGI: > 100 µM
IGROV1 ovarian
  GI50: 40.5 µM
  TGI: > 100 µM
OVCAR-5 ovarian
  GI50: 96.9 µM
  TGI: > 100 µM
OVCAR-3 ovarian
  GI50: > 64.2 µM
  TGI: > 100 µM
NCI-H522 lung
  GI50: > 68.7 µM
  TGI: > 100 µM
M14 melanoma
  GI50: > 53.4 µM
  TGI: > 100 µM
TK-10 renal
  GI50: > 84.3 µM
  TGI: > 100 µM
SK-MEL-28 melanoma
  GI50: > 100 µM
  TGI: > 100 µM
MDA-MB-231 breast
  GI50: > 100 µM
  TGI: > 100 µM

## CC(=O)OC1CC[C@@]2(C)C(CC[C@]3(C)C2CC=C2[C@@H]4C(C)[C@H](C)CCC4(C)CCC23C)[C@@]1(C)C(=O)O (some centres undefined)
UACC-257 melanoma
  TGI: 40.9 µM
SK-MEL-5 melanoma
  TGI: 35.5 µM
IGROV1 ovarian
  TGI: 46.9 µM
OVCAR-5 ovarian
  TGI: 33.3 µM
OVCAR-3 ovarian
  TGI: 40.4 µM
NCI-H522 lung
  TGI: 45.4 µM
M14 melanoma
  TGI: 52.4 µM
TK-10 renal
  TGI: 30.7 µM
SK-MEL-28 melanoma
  TGI: 52 µM
MDA-MB-231 breast
  TGI: 49.6 µM

## C#COc1cccc(Nc2ncnc3cc(NC(=O)[C@H](C)Cl)ccc23)c1
UACC-257 melanoma
  GI50: > 62.5 µM
  TGI: > 62.5 µM
SK-MEL-5 melanoma
  GI50: 1.39 µM
  TGI: 3.54 µM
IGROV1 ovarian
  GI50: 2.35 µM
  TGI: > 62.5 µM
OVCAR-5 ovarian
  GI50: 3.84 µM
  TGI: > 62.5 µM
OVCAR-3 ovarian
  GI50: 2.17 µM
  TGI: > 62.5 µM
NCI-H522 lung
  GI50: 1.67 µM
  TGI: 8.29 µM
M14 melanoma
  GI50: 2.27 µM
  TGI: > 62.5 µM
TK-10 renal
  GI50: 23.6 µM
  TGI: > 62.5 µM
SK-MEL-28 melanoma
  GI50: 4.71 µM
  TGI: > 62.5 µM
MDA-MB-231 breast
  GI50: 3.75 µM
  TGI: > 62.5 µM

## c1ccc([As]=[As]c2ccccc2)cc1 (centres undefined)
UACC-257 melanoma
  GI50: 1.28 µM
  TGI: 2.88 µM
SK-MEL-5 melanoma
  GI50: 1.41 µM
  TGI: 3.57 µM
IGROV1 ovarian
  GI50: 0.666 µM
  TGI: 2.76 µM
OVCAR-5 ovarian
  GI50: 1.5 µM
  TGI: 3.07 µM
OVCAR-3 ovarian
  GI50: 0.676 µM
  TGI: 1.85 µM
NCI-H522 lung
  GI50: 1.09 µM
  TGI: 2.42 µM
M14 melanoma
  GI50: 1.55 µM
  TGI: 4.17 µM
TK-10 renal
  GI50: 1.61 µM
  TGI: 3.38 µM
SK-MEL-28 melanoma
  GI50: 0.922 µM
  TGI: 2.32 µM
MDA-MB-231 breast
  GI50: 0.88 µM
  TGI: 2.21 µM

## CSCCCNC(=O)c1csc(-c2csc(CCNC(=O)CNC(=O)CNC(=O)OC(C)(C)C)n2)n1
UACC-257 melanoma
  TGI: > 100 µM
SK-MEL-5 melanoma
  TGI: > 100 µM
IGROV1 ovarian
  TGI: > 100 µM
OVCAR-5 ovarian
  TGI: > 100 µM
OVCAR-3 ovarian
  TGI: > 100 µM
NCI-H522 lung
  TGI: > 100 µM
M14 melanoma
  TGI: > 100 µM
TK-10 renal
  TGI: > 100 µM
SK-MEL-28 melanoma
  TGI: > 100 µM
MDA-MB-231 breast
  TGI: > 100 µM

## COc1cccc(C2C3=C(COC3=O)N(CCO)c3cc4c(cc32)OCO4)c1 (centres undefined)
UACC-257 melanoma
  GI50: 0.124 µM
  TGI: > 50 µM
SK-MEL-5 melanoma
  GI50: 0.177 µM
  TGI: > 50 µM
IGROV1 ovarian
  GI50: 0.154 µM
  TGI: 1.64 µM
OVCAR-5 ovarian
  GI50: 2.03 µM
  TGI: > 50 µM
OVCAR-3 ovarian
  GI50: 0.121 µM
  TGI: 0.286 µM
NCI-H522 lung
  GI50: 0.051 µM
  TGI: 0.187 µM
M14 melanoma
  GI50: 0.25 µM
  TGI: > 11 µM
TK-10 renal
  GI50: 0.725 µM
SK-MEL-28 melanoma
  GI50: > 50 µM
  TGI: > 50 µM
MDA-MB-231 breast
  GI50: 1.28 µM
  TGI: 45.8 µM

## Cc1c(C(N)=O)sc2c1c(=O)n(Cc1ccccc1)c1nnc(-c3ccc(Br)cc3)n21
UACC-257 melanoma
  GI50: 3.14 µM
  TGI: 11.8 µM
SK-MEL-5 melanoma
  GI50: 1.47 µM
  TGI: 4.89 µM
IGROV1 ovarian
  GI50: 2.15 µM
  TGI: 19.2 µM
OVCAR-5 ovarian
  GI50: 7.17 µM
  TGI: 21.3 µM
OVCAR-3 ovarian
  GI50: 2.48 µM
  TGI: 16.9 µM
NCI-H522 lung
  GI50: 3.13 µM
  TGI: 12.9 µM
M14 melanoma
  GI50: 1.51 µM
  TGI: 3.67 µM
TK-10 renal
  GI50: 3.33 µM
  TGI: 16.3 µM
SK-MEL-28 melanoma
  GI50: 4.09 µM
  TGI: 17.1 µM
MDA-MB-231 breast
  GI50: 0.829 µM
  TGI: 18.6 µM

## N#CN1CC[C@H](C(=O)Nc2cc3cc(C(N)=O)ccc3cn2)C1
UACC-257 melanoma
  GI50: 0.22 µM
  TGI: 0.904 µM
SK-MEL-5 melanoma
  GI50: 0.105 µM
  TGI: 2.21 µM
IGROV1 ovarian
  GI50: 0.387 µM
  TGI: > 25.3 µM
OVCAR-5 ovarian
  GI50: 0.51 µM
  TGI: > 68.4 µM
OVCAR-3 ovarian
  GI50: < 0.0186 µM
  TGI: 0.206 µM
NCI-H522 lung
  GI50: 0.0695 µM
  TGI: 0.247 µM
M14 melanoma
  GI50: 0.0694 µM
  TGI: 1.13 µM
TK-10 renal
  GI50: 0.232 µM
  TGI: 2.44 µM
SK-MEL-28 melanoma
  GI50: 0.117 µM
  TGI: 9.41 µM
MDA-MB-231 breast
  GI50: 0.0995 µM
  TGI: > 24.5 µM

## COc1ccc(/C=C\c2cc(OC)c(OC)c(OC)c2)cc1OCC(=O)Nc1ccc2nc(C)sc2c1
UACC-257 melanoma
  GI50: 1.73 µM
  TGI: 3.4 µM
SK-MEL-5 melanoma
  GI50: 1.97 µM
  TGI: 5.14 µM
IGROV1 ovarian
  GI50: 3.72 µM
  TGI: 15.7 µM
OVCAR-5 ovarian
  GI50: 6.69 µM
  TGI: > 100 µM
OVCAR-3 ovarian
  GI50: 6.32 µM
  TGI: 69.2 µM
NCI-H522 lung
  GI50: 2.28 µM
  TGI: 7.06 µM
M14 melanoma
  GI50: 3.38 µM
  TGI: 10.4 µM
TK-10 renal
  GI50: 4.21 µM
  TGI: > 100 µM
SK-MEL-28 melanoma
  GI50: 3.22 µM
  TGI: 13.1 µM
MDA-MB-231 breast
  GI50: 5.45 µM
  TGI: > 100 µM

## CC1=C[C@H]2C[C@H](C)[C@H]3CC[C@H](C)[C@]4(C1)C(=O)C(O)=C(C)C(=O)[C@@]324
UACC-257 melanoma
  GI50: 59.2 µM
  TGI: > 100 µM
SK-MEL-5 melanoma
  GI50: 13.5 µM
  TGI: 30.8 µM
IGROV1 ovarian
  GI50: 29.6 µM
  TGI: > 100 µM
OVCAR-5 ovarian
  GI50: 20.4 µM
  TGI: 55.4 µM
OVCAR-3 ovarian
  GI50: 20 µM
  TGI: 64.6 µM
NCI-H522 lung
  GI50: 19.8 µM
  TGI: 83.4 µM
M14 melanoma
  GI50: 29.7 µM
  TGI: > 100 µM
TK-10 renal
  GI50: 47.4 µM
  TGI: > 100 µM
SK-MEL-28 melanoma
  GI50: 26 µM
  TGI: > 100 µM
MDA-MB-231 breast
  GI50: 20.8 µM
  TGI: 65.7 µM

## COc1cccc(/C(C)=N/NC(=O)CSc2nc3ccccc3c(=O)n2CCc2ccc(S(N)(=O)=O)cc2)c1
UACC-257 melanoma
  GI50: 10.9 µM
  TGI: 36.7 µM
SK-MEL-5 melanoma
  GI50: 2.03 µM
  TGI: 4.24 µM
IGROV1 ovarian
  GI50: 5.09 µM
  TGI: 24.4 µM
OVCAR-5 ovarian
  GI50: 3.36 µM
  TGI: 21 µM
OVCAR-3 ovarian
  GI50: 2.32 µM
  TGI: 4.8 µM
NCI-H522 lung
  GI50: 2.66 µM
  TGI: 9.65 µM
M14 melanoma
  GI50: 2.58 µM
  TGI: 73 µM
TK-10 renal
  GI50: 2.36 µM
  TGI: 5.42 µM
SK-MEL-28 melanoma
  GI50: 10.8 µM
  TGI: 38.7 µM
MDA-MB-231 breast
  GI50: 2.23 µM
  TGI: 5.06 µM

## CCS(=O)(=O)c1ccc(OC)c(Nc2ncc(-c3ccccc3Cl)o2)c1
UACC-257 melanoma
  GI50: > 25 µM
  TGI: > 25 µM
SK-MEL-5 melanoma
  GI50: 7.4 µM
  TGI: > 19.4 µM
IGROV1 ovarian
  GI50: 14.4 µM
  TGI: > 25 µM
OVCAR-5 ovarian
  GI50: 10.9 µM
  TGI: > 25 µM
OVCAR-3 ovarian
  GI50: 9.38 µM
  TGI: > 25 µM
NCI-H522 lung
  GI50: 8.95 µM
  TGI: > 25 µM
M14 melanoma
  GI50: 12.5 µM
  TGI: > 25 µM
TK-10 renal
  GI50: 16.6 µM
  TGI: > 25 µM
SK-MEL-28 melanoma
  GI50: > 25 µM
  TGI: > 25 µM
MDA-MB-231 breast
  GI50: 11.4 µM
  TGI: > 25 µM
